Laboratory results taken from patent US8093266B2, “Rho kinase inhibitors” (Boehringer Ingelheim International GmbH, priority 2007, dated 2012).

Key:
ROCKII (1-543) kinase = molecular target: T1, ROCKII (1-543) kinase (Homo sapiens, UniProt O75116); experiment: Molecular assay: ROCKII (1-543) kinase activity, PKLight ATP detection (luciferin-luciferase, residual ATP); format: biochemical; settings: 750 nM ATP, 500 nM peptide substrate, 7.5 nM kinase, 90 min at 28° C.; read-out: Rock2 IC50
T1 construct: ROCKII (1-543) (62,408 Da) was diluted in assay buffer to a final concentration of 7.5 nM
Method: The activity of ROCKII (1-543) kinase was measured utilizing Cambrex PKLight ATP Detection Reagent, a homogeneous assay technology using luciferin-luciferase to quantify residual ATP. The assay was performed in 384-well low-volume, white, non-binding surface microtiter plates (Corning). The assay buffer was 25 mM HEPES, pH 7.5, 10 mM MgCl2, 50 mM KCl, 0.2% BSA, 0.01% CHAPS, 100 μM Na3VO4 and 0.5 mM DTT. Test compounds, dissolved in neat DMSO at 500 μg/mL, were serially diluted for dose response for a final starting concentration of 3 μg/mL in 1% DMSO of assay buffer. ROCKII (1-543) (62,408 Da) was diluted in assay buffer to a final concentration of 7.5 nM in a total volume of 15 μL. Positive controls were reaction mixtures containing no test compound; negative controls (blanks) were reaction mixtures containing no kinase. After 15 minutes of pre-incubation of the test compounds with the kinase, a mixture of ATP and peptide substrate ([…]) in assay buffer was added to each well for a final concentration of 750 nM ATP and 500 nM peptide, respectively. After 90 minutes of incubation of the kinase reaction at 28° C. temperature, 10 μL of PKLight ATP Detection Reagent (warmed to room temperature previously) was added to each well. The assay plate was incubated at room temperature for additional 15 minutes and then read on an Analyst in luminescence mode. Dose-response experiments for each of the test compounds were conducted in quadruplet. IC50 values of test compounds represent 50% response of the positive control from the dose-response curve.
Representative compounds of the present invention were tested for activity in this assay and all had IC50 values <10 μM. Preferred compounds have an IC50<1 μM and more preferred compounds have an IC50<0.1 μM in this assay. As examples the following data were obtained for the compounds named below: […]

[1] = rat stroke model; cited from earlier work
[2] = long term treatment; cited from earlier work

T1 sequence (O75116 1-543): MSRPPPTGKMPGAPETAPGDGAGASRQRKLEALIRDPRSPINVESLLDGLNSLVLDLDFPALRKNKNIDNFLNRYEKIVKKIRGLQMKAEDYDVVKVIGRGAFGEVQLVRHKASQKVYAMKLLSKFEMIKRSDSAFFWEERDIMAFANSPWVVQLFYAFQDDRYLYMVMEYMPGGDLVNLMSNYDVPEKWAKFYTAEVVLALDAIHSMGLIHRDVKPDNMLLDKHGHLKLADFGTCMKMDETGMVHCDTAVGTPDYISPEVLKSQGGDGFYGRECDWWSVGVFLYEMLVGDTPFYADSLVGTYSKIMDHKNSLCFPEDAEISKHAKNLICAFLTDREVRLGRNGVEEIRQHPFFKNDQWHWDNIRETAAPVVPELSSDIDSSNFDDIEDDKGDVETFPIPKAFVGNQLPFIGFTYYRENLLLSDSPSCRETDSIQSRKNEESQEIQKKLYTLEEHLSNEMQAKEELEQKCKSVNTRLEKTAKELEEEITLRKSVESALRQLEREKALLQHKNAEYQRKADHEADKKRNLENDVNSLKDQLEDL

SMILES | IC50 (ROCKII (1-543) kinase) | other results
COc1ccc(C(=O)NCc2cccc(C(=O)Nc3ncc(CCN4CCN(C)CC4)s3)c2)cc1OC [3,4-Dimethoxy-N-(3-{5-[2-(4-methyl-piperazin-1-yl)-ethyl]-thiazol-2-ylcarbamoyl}-benzyl)-benzamide] | 20 nM | –
COc1ccc(C(=O)NCc2cccc(C(=O)Nc3ccc4c(c3)CCNCC4)c2)cc1OC [3,4-Dimethoxy-N-[3-(2,3,4,5-tetrahydro-1H-benzo[d]azepin-7-ylcarbamoyl)-benzyl]-benzamide] | 15 nM | –
COc1ccc(C(=O)NCc2cccc(C(=O)Nc3cnc4c(c3)CN(C)CC4)c2)cc1OC [3,4-Dimethoxy-N-[3-(6-methyl-5,6,7,8-tetrahydro-[1,6]naphthyridin-3-ylcarbamoyl)-benzyl]-benzamide] | 61 nM | –
COc1ccc(C(=O)NCc2cccc(C(=O)Nc3nc4c(s3)C[C@@H](N3CCOCC3)CC4)c2)cc1OC [3,4-Dimethoxy-N-[3-((S)-6-morpholin-4-yl-4,5,6,7-tetrahydro-benzothiazol-2-ylcarbamoyl)-benzyl]-benzamide] | 1 nM | –
COCCN1CCc2ccc(NC(=O)c3cccc(CNC(=O)c4ccc(OC)c(OC)c4)c3)cc2C1 [3,4-Dimethoxy-N-{3-[2-(2-methoxy-ethyl)-1,2,3,4-tetrahydro-isoquinolin-7-ylcarbamoyl]-benzyl}-benzamide] | 99 nM | –
COc1ccc(C(=O)NCc2cccc(C(=O)Nc3ccc(OCCN4CCOCC4)cc3)c2)cc1OC [3,4-Dimethoxy-N-{3-[4-(2-morpholin-4-yl-ethoxy)-phenylcarbamoyl]-benzyl}-benzamide] | 58 nM | –
COc1ccc(C(=O)NCc2cccc(C(=O)Nc3nc4c(s3)CNCC4)c2)cc1Cl [3-Chloro-4-methoxy-N-[3-(4,5,6,7-tetrahydro-thiazolo[5,4-c]pyridin-2-ylcarbamoyl)-benzyl]-benzamide] | 4 nM | –
CCCN[C@H]1CCc2nc(NC(=O)c3cccc(CNC(=O)c4ccc(OC)c(Cl)c4)c3)sc2C1 [3-Chloro-4-methoxy-N-[3-((S)-6-propylamino-4,5,6,7-tetrahydro-benzothiazol-2-ylcarbamoyl)-benzyl]-benzamide] | 2 nM | –
CCCN[C@H]1CCc2nc(N(CCOC)C(=O)c3cccc(CNC(=O)c4ccc(OC)c(Cl)c4)c3)sc2C1 [3-Chloro-4-methoxy-N-{3-[(2-methoxy-ethyl)-((S)-6-propylamino-4,5,6,7-tetrahydro-benzothiazol-2-yl)-carbamoyl]-benzyl}-benzamide] | 72 nM | –
O=S(=O)(c1cccc2cnccc12)N1CCCNCC1 [fasudil] | – | infarct size and neurologic deficit [1]: reduce both the infarct size and neurologic deficit; coronary constrictive remodeling [2]: promote a regression of coronary constrictive remodeling; coronary stenosis [2]: progressively reduce coronary stenosis

Continued, in another order:

IC50 (ROCKII (1-543) kinase) | SMILES | other results
10 nM | CN1CCc2nc(NC(=O)c3cccc(CNC(=O)Nc4ccc(C#N)cc4)c3)sc2C1 [3-[3-(4-Cyano-phenyl)-ureidomethyl]-N-(5-methyl-4,5,6,7-tetrahydro-thiazolo[5,4-c]pyridin-2-yl)-benzamide] | –
22 nM | COc1ccc(C(=O)NCc2cccc(NC(=O)c3nc4c(s3)CNCC4)c2)cc1OC [4,5,6,7-Tetrahydro-thiazolo[5,4-c]pyridine-2-carboxylic acid {3-[(3,4-dimethoxy-benzoylamino)-methyl]-phenyl}-amide] | –
120 nM | COc1ccc(C(=O)NCc2cccc(C(=O)Nc3ccc(CCN4CCCC4)cc3)c2)cc1C [4-Methoxy-3-methyl-N-{3-[4-(2-pyrrolidin-1-yl-ethyl)-phenylcarbamoyl]-benzyl}-benzamide] | –
6 nM | COc1ccc(C(=O)NCc2cccc(C(=O)Nc3ccc4c(c3)CNC4)c2)cc1OC [N-[3-(2,3-Dihydro-1H-isoindol-5-ylcarbamoyl)-benzyl]-3,4-dimethoxy-benzamide] | –
12 nM | COc1ccc(C(=O)NCc2cccc(C(=O)Nc3ccc4c(c3)CC(N)C4)c2)cc1OC (centres unmarked) [N-[3-(2-Amino-indan-5-ylcarbamoyl)-benzyl]-3,4-dimethoxy-benzamide] | –
27 nM | CCN1CCc2ccc(NC(=O)c3cccc(CNC(=O)c4ccc(OC)c(OC)c4)c3)cc2C1 [N-[3-(2-Ethyl-1,2,3,4-tetrahydro-isoquinolin-7-ylcarbamoyl)-benzyl]-3,4-dimethoxy-benzamide] | –
1 nM | COc1ccc(C(=O)NCc2cccc(C(=O)Nc3nc4c(s3)C[C@H](N(C)C)CC4)c2)cc1OC [N-[3-((R)-6-Dimethylamino-4,5,6,7-tetrahydro-benzothiazol-2-ylcarbamoyl)-benzyl]-3,4-dimethoxy-benzamide] | –
13 nM | COc1ccc(C(=O)NCc2cccc(C(=O)Nc3nc4c(s3)C[C@@H](N3CCS(=O)(=O)CC3)CC4)c2)cc1OC [N-{3-[(S)-6-(1,1-Dioxo-thiomorpholin-4-yl)-4,5,6,7-tetrahydro-benzothiazol-2-ylcarbamoyl]-benzyl}-3,4-dimethoxy-benzamide] | –
